Source: article PMC6434079, “Time-dependent inhibition of PHD2” (Bioscience Reports, 2017)
Like-named read-outs stand apart in the source and are kept apart here.

Legend:
PHD1 [1] = molecular target: T1, PHD1 (Homo sapiens, UniProt Q96KS0); test: PHD1 IC50 determination (LC/MS/MS, selectivity screening); assay type: biochemical
PHD3 [2] = molecular target: T2, PHD3 (Homo sapiens, UniProt Q9H6Z9); test: PHD3 IC50 determination (LC/MS/MS, selectivity screening); assay type: biochemical
PHD2 = PHD2 (Homo sapiens, UniProt Q9GZT9); test: Mechanism of inhibition and Ki determination at increasing 2-OG concentrations; conditions: for mechanism of inhibition of PHD2: IC50 increases linearly with increasing 2-OG concentration
Sequence of PHD2 (Q9GZT9 180-417): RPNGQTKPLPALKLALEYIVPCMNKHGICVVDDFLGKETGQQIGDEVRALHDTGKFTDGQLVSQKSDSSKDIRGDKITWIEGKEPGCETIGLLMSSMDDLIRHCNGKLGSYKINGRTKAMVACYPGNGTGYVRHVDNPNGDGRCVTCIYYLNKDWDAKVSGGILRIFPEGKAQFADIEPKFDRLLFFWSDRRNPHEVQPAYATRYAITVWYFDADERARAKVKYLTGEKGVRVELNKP

FIH1 [3] = molecular target: T3, FIH1 (Homo sapiens, UniProt Q9NWT6); test: FIH1 IC50 determination (LC/MS/MS, selectivity screening)
T3 sequence (Q9NWT6 whole entry): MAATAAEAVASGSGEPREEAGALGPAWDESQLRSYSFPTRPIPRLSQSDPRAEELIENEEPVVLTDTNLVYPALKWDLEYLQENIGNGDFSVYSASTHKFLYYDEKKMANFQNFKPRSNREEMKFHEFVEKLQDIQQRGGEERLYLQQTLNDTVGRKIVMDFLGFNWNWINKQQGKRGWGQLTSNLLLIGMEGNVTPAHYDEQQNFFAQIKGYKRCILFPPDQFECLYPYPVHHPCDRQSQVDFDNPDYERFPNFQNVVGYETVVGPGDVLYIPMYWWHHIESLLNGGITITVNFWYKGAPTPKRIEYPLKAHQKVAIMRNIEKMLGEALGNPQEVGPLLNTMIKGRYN

PHD3 [4] = molecular target: T2, PHD3; conditions: read-out: Km for 2-OG, PHD3; 1 μM peptide, 1 mM ascorbic acid, 40 nM enzyme
FIH1 [5] = molecular target: T3, FIH1; conditions: read-out: Km for 2-OG, FIH1; 1 μM peptide, 1 mM ascorbic acid, 15 nM enzyme
PHD1 [6] = molecular target: T1, PHD1; conditions: read-out: Km for 2-OG, PHD1; 1 μM peptide, 1 mM ascorbic acid, 50 nM enzyme

T2 sequence (Q9H6Z9 whole entry): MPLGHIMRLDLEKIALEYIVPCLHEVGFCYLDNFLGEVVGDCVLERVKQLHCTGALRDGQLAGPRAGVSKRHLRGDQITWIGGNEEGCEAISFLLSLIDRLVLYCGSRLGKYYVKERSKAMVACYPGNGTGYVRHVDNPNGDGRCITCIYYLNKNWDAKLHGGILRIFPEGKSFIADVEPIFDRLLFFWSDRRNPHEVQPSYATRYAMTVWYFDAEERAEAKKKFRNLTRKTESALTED
T1 sequence (Q96KS0 163-403): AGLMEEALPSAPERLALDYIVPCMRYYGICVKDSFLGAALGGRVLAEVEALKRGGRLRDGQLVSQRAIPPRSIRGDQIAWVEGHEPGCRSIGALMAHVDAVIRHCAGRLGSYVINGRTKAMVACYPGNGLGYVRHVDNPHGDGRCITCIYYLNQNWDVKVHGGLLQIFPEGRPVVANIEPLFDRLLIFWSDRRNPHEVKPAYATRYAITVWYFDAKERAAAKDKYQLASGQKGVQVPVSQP

With `O=C(O)CNC(=O)c1c(O)n(C2CCCCC2)c(=O)n(C2CCCCC2)c1=O` [Compound 3] the IC50 (PHD1 [1]) was 0.015 µM and the IC50 (PHD3 [2]) was 8 nM.

In the case of `N#Cc1cn(-c2c[nH]n(-c3cc(N4CC(F)(F)C4)ncn3)c2=O)nn1` [Compound 7], the Ki (PHD2) is reported as 87 nM, the “mechanism of inhibition of PHD2” value (PHD2) is reported as “compete with 2-OG substrate for binding at the enzyme active site” and the IC50 (PHD1 [1]) is reported as 0.02 µM. It also gave an IC50 (PHD3 [2]) of 12 nM.

In the case of `Cc1nc(C(=O)NCC(=O)O)c(O)c2ccc(Oc3ccccc3)cc12` [Compound 4], the “mechanism of inhibition of PHD2” value (PHD2) is reported as “compete with 2-OG substrate for binding at the enzyme active site”, the IC50 (PHD1 [1]) is reported as 0.002 µM and the IC50 (PHD3 [2]) is reported as 5 nM. It also gave an IC50 (FIH1 [3]) of over 10000 nM.

For `Cc1cccnc1CN1CCC2(CC1)C(=O)N(c1ccc(-c3ccccc3)cc1)c1ccccc12` [Compound 9], the IC50 (PHD1 [1]) was 1.62 µM, the IC50 (PHD3 [2]) was 2040 nM and the IC50 (FIH1 [3]) was over 10000 nM.

`CC(C)c1nn(Cc2ccc(-c3ccc(F)cc3)cc2F)c(=O)c(C(=O)NCC(=O)O)c1O` [Compound 1] showed an IC50 (PHD1 [1]) of 0.003 µM and an IC50 (PHD3 [2]) of 13 nM.

Compound `O=C(NC(c1ccccc1)c1ccccc1)c1cnc(-c2cccnn2)nc1O` [Compound 8] has an IC50 (PHD1 [1]) of 0.02 µM, an IC50 (PHD3 [2]) of 25 nM and an IC50 (FIH1 [3]) of 9770 nM.

With `O=C(O)CNC(=O)C(=O)O` [Compound 6] the IC50 (PHD1 [1]; read-out: PHD1 IC50 (μM)—60 min incubation, 60 min preincubation, 25 nM PHD1, 2 μM 2-OG) was 0.851 µM, the IC50 (PHD3 [2]) was 186 nM and the IC50 (FIH1 [3]) was 191 nM.

Work on `O=C(O)c1cnn(-c2nc3cc(C(F)(F)F)c(Cl)cc3[nH]2)c1` [Compound 2] yielded an IC50 (PHD1 [1]) of 0.011 µM, an IC50 (PHD3 [2]) of 25 nM and an IC50 (FIH1 [3]) of 5490 nM.

`O=C(O)CCC(=O)C(=O)O` [Compound 2-OG, 2-oxoglutarate] gave a Km (PHD3 [4]) of 0.66 µM, a Km (FIH1 [5]) of 0.56 µM and a Km (PHD1 [6]) of 0.31 µM.

In the case of `O=C(O)CNC(=O)c1nc(Cl)c2ccccc2c1O` [Compound 5], the IC50 (PHD1 [1]) is reported as 0.016 µM, the IC50 (PHD3 [2]) is reported as 21 nM and the IC50 (FIH1 [3]) is reported as over 10000 nM.
